Data from the supplement of paper PMC10307832.

What was measured:
Test in all cases: relative viability (nuclei count vs DMSO), 5 days (fraction); higher = more cells survive
[1] = compound: C1=CC=C(C(=C1)C2=CC=C(C=C2)C3=CSC4=C3C(=C(C(=O)N4)C#N)O)O + Cc1cc(Nc2cc(N3CCN(C)CC3)nc(Sc3ccc(NC(=O)C4CC4)cc3)n2)n[nH]1 [Tozasertib] (partner 0.1 µM)
Method in brief: (§1)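 Lung cancer cell lines were seeded in 1536-well plates and dosed by pin tool the next day, with either a single drug or a fixed anchor-drug dose combined with five library-drug doses (not always all listed) spaced in √10 steps. Five days later, one step fixed the cells and stained their nuclei (final 0.05% Triton X-100, 1% formaldehyde, 1 ug/ml Hoechst), and nuclei were counted on 4× images. Relative viability is the nuclei count in treated wells divided by the count in vehicle wells, and each value is the median of duplicate plates.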

TGX 221 + Luminespib = compound: CC1=CN2C(=O)C=C(N=C2C(=C1)C(C)NC3=CC=CC=C3)N4CCOCC4 [TGX 221] + CCNC(=O)c1noc(-c2cc(C(C)C)c(O)cc2O)c1-c1ccc(CN2CCOCC2)cc1 [Luminespib] (partner 0.01 µM)
Method in brief: as §1

TGX 221 + Tozasertib = compound: CC1=CN2C(=O)C=C(N=C2C(=C1)C(C)NC3=CC=CC=C3)N4CCOCC4 [TGX 221] + Cc1cc(Nc2cc(N3CCN(C)CC3)nc(Sc3ccc(NC(=O)C4CC4)cc3)n2)n[nH]1 [Tozasertib] (partner 0.1 µM)
Method in brief: as §1

Ricolinostat + AZD7762 = compound: O=C(CCCCCCNC(=O)c1cnc(N(c2ccccc2)c2ccccc2)nc1)NO [Ricolinostat] + NC(=O)Nc1cc(-c2cccc(F)c2)sc1C(=O)N[C@H]1CCCNC1 [AZD7762] (partner 0.2 µM)
Method in brief: as §1

Cell Line | relative viability ([1]; first compound 0.08 µM) | relative viability ([1]; first compound 0.253 µM) | relative viability ([1]; first compound 0.8 µM) | relative viability ([1]; first compound 2.53 µM) | relative viability ([1]; first compound 8 µM) | relative viability (TGX 221 + Luminespib; first compound 0.08 µM) | relative viability (TGX 221 + Luminespib; first compound 0.253 µM) | relative viability (TGX 221 + Luminespib; first compound 0.8 µM) | relative viability (TGX 221 + Luminespib; first compound 2.53 µM) | relative viability (TGX 221 + Luminespib; first compound 8 µM) | relative viability (TGX 221 + Tozasertib; first compound 0.08 µM) | relative viability (TGX 221 + Tozasertib; first compound 0.253 µM) | relative viability (TGX 221 + Tozasertib; first compound 0.8 µM) | relative viability (TGX 221 + Tozasertib; first compound 2.53 µM) | relative viability (TGX 221 + Tozasertib; first compound 8 µM) | relative viability (Ricolinostat + AZD7762; first compound 0.08 µM) | relative viability (Ricolinostat + AZD7762; first compound 0.253 µM) | relative viability (Ricolinostat + AZD7762; first compound 0.8 µM) | relative viability (Ricolinostat + AZD7762; first compound 2.53 µM)
NCI-H1944 | 0.269 | 0.281 | 0.269 | 0.251 | 0.228 | 0.649 | 0.742 | 0.795 | 0.587 | 0.399 | 0.237 | 0.223 | 0.241 | 0.244 | 0.2 | 0.463 | 0.483 | 0.354 | 0.21
201T | 0.743 | 1.03 | 1.01 | 1.05 | 0.926 | 1.09 | 1.04 | 1.13 | 0.979 | 0.871 | 0.915 | 0.933 | 0.955 | 0.833 | 0.808 | 0.607 | 0.657 | 0.645 | 0.541
NCI-H460 | 0.395 | 0.429 | 0.345 | 0.461 | 0.296 | 0.0366 | 0.029 | 0.0351 | 0.04 | 0.028 | 0.383 | 0.489 | 0.639 | 0.0964 | 0.131 | 0.589 | 0.582 | 0.587 | 0.322
LOU-NH91 | 0.669 | 0.715 | 0.612 | 0.637 | 0.645 | 0.332 | 0.358 | 0.323 | 0.317 | 0.31 | 0.713 | 0.653 | 0.697 | 0.675 | 0.562 | – | 0.788 | 0.796 | 0.739
